{"source": "patent US8202696B2", "about": "“Means for use in treating diseases correlated with or caused by non-physiological levels of microtubule-associated PP2Ac” (Max-Planck-Gessellschaft zur Forderung der Wissenschaften …, priority 2002, dated 2012)", "key": {"Gli3": {"tested_on": "Gli3", "experiment": "Localization of overexpressed GFP-tagged Gli3 in HeLa cells", "assay_type": "cell-based", "conditions": "GFP-Gli3 plus B-Box overexpressing HeLa cells", "method": "1×10^5 HELA cells per well of a 6-well plate were transfected with Qiagen Polyfect transfection reagent according to the manufacturer's instructions. The ratio of the amount of DNA to the amount of polyfect transfection reagent was 3 μg DNA/10 μl Polyfect. Constructs used for expression in HELA were the following: GFP-GLI3 (aa 18-1549), GLI3-GFP (aa 1-1522), MYC-GLI3 (aa 18-1596), FLAG-GLI3 (aa18-1596), MYC-B-BOX1 (aa 110-167 of the MID1 protein), ALPHA4-V5 (aa 1-339). 24 h after transfection immunofluorescence was performed. GFP-constructs were treated as described in Schweiger et al., 1999. Immunofluorescence with MYC-tagged and FLAG-tagged constructs was done according to Trockenbacher et al., 2001. FLAG-tagged constructs were detected with anti-FLAG-antibody diluted 1:500, the secondary antibody FITC-antimouse was diluted 1:1000. For MYC-tagged constructs anti-MYC-antibody 1:300 and CY3-antirabbit 1:1000 were used. […]\nOverexpressed Gli3 is predominantly localized in the nucleus (FIG. 10, top left)."}, "PP2A": {"tested_on": "PP2A", "experiment": "hFused phosphorylation in vitro, cytosol incubated with or without fostriecin, Western blot", "assay_type": "biochemical", "conditions": "fostriecin 500 nM, 4 h, 30° C.", "method": "8×10^5 cells were transfected with hFused-V5 (aa 1-1335) using Qiagen Polyfect transfection reagent according to the manufacturer's instructions. Cytosol of hFused-V5 overexpressing cells was incubated for 4 h in the presence or absence of fostriecin (500 nM) at 30° C. Proteins (200 μg protein per lane) were separated on a 6% SDS-gel, blotted on PVDF-membranes and incubated with anti-V5-antibody (1:3000). Secondary HRP-antimouse-antibody was diluted 1:2000.\nFostriecin is a highly specific inhibitor of PP2A activity.\nCytosol of V5-tagged hFused-overexpressing cells was incubated for 4 h in the absence (line1) and presence (line2) of fostriecin at 30° C. Subsequently proteins were separated on an SDS-Page, blotted and incubated with an anti-V5 antibody."}, "proteasome": {"tested_on": "proteasome", "experiment": "Polyubiquitinated proteins in the MID1 immune complex, COS7 cells", "assay_type": "cell-based", "conditions": "MID1-myc, anti-myc precipitate", "method": "Immunoprecipitation, western blotting and immunofluorescence. For COS7 cells, we lysed in IP1 buffer 8×10^6 cells transfected with pBudCE4 vector carrying the respective cDNAs. After preclearing the lysate with 50 μl protein A-agarose (slurry), we incubated supernatants with 2 μg anti-V5 overnight at 4° C. and then for 2 h with 75 μl (slurry) protein A-agarose. After three washes in IP1 buffer, we eluted the proteins with 1× Laemmli buffer at 95° C. MID1-V5 expression was optimal 48 h after doxycyclin removal from 293 tet-off cell lines. We then lysed cells in IP1 buffer and carried out immunoprecipitation with 2 μg anti-V5. We boiled proteins in 1×SDS-PAGE buffer, separated them on 10% and 12% SDS gels, blotted on PVDF membranes (Roche) and blocked and incubated with the respective primary antibody according to the manufacturer's instructions. Because several RING-finger proteins interact with target proteins and thereby elicit their ubiquitin-dependent degradation^8-11, we examined interaction of MID1 with polyubiquitinated proteins. We transfected COS7 cells either with MID1 cDNA or, as a control, with cDNA encoding protein kinase C (PKC), each tagged with a C-terminal V5 epitope or an empty vector, respectively. We treated the cells with 25 μM of LLnL, a proteasome inhibitor, 24 h after transfection to enrich for ubiquitinated proteins. […]"}, "α4": {"molecular_target": "T1, α4 (Homo sapiens, UniProt P78318)", "T1 construct": "expressed in transfected cells; host or cells: L40 yeast strain", "T1 sequence (P78318 1-339)": "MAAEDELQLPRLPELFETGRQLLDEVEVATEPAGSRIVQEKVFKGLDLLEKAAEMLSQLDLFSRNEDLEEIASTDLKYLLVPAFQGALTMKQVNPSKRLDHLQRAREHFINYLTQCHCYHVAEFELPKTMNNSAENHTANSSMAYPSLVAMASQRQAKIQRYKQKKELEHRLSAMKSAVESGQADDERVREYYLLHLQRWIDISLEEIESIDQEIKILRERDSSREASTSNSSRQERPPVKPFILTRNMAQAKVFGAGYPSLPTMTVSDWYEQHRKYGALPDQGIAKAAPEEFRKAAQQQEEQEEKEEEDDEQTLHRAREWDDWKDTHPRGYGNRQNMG", "experiment": "Yeast two-hybrid interaction of MID1 constructs with α4", "assay_type": "binding", "method": "Yeast two-hybrid screening. For yeast two-hybrid screening, we cloned full-length MID1 cDNA into the pBTM116 vector. We then cotransfected this with a human fetal brain cDNA Matchmaker library in the pGAD10 vector (Clontech) into the L40 yeast strain. We plated the transformants on synthetic medium lacking histidine, leucine and tryptophan (his^− leu^− trp^−) and containing 3-amino-1,2,4, triazole, and incubated the plates at 30° C. for 5 days. We assayed his-positive colonies for β-galactosidase activity with a filter assay^47. We isolated plasmid DNA from β-galactosidase-positive clones and cotransfected this again into L40 yeast with MID1-pBTM116 and controls. We selected plasmids that produced growth on selective plates only in combination with MID1-pBTM116, which were assumed to code for MID1 interactors, and sequenced them.\nActivity of β-galactosidase in yeast liquid cultures. We assayed cells for β-galactosidase activity by the o-nitrophenyl-β-D-galactopyranoside (ONPG) method^47.\nMID1 is a multidomain protein harboring a RING finger, two B-boxes, a coiled-coil region, a fibronectin type III domain and a B30.2 domain^3—all of which are candidate regions for specific protein-protein interactions. To clarify which domain specifically binds α4, we tested several deletion mutants of MID1 for interaction with α4 in the yeast two-hybrid system. […]"}, "tau protein": {"tested_on": "tau protein", "experiment": "Tau-1 and pan-Tau immunofluorescence in transfected postnatal sympathetic neurons", "assay_type": "cell-based, rat", "conditions": "compared to non-transfected neurons = 100%, two days after transfection", "method": "Peripheral sympathetic neurons were obtained from postnatal day 1-3 rats. […] Following mechanical dissociation the cell suspension was filtered through a 40 μm nylon mesh and seeded at 6 SCGs per well into uncoated Falcon dishes for preplating purposes. After 4 hours neurons were transferred into glass floor dishes (Willco Wells B.V., gwst 3522, 3.8 cm^2 area/dish) coated with poly-D-lysine/laminin. Neurons were maintained in RPMI medium containing antibiotics, N2 additive (Invitrogen) and 100 ng/ml nerve growth factor (NGF; Sigma) at 37° C. in a humidified atmosphere with 5% CO2.\nNeurons were transfected 2 hours after seeding applying the biolistic approach. This method uses a hand held gun to bombard dissociated neurons at high velocity with micron-size gold particles loaded with DNA. The coating of gold particles with DNA was achieved using a modification of the manufacturer's instructions (Bio-Rad Laboratories). For preparation of 35 cartridges 25 mg gold particles (1.6 μm diameter) were suspended in 50 μl of 0.05 M spermidine. After vortexing and sonication for 5 seconds, 50 μg plasmid DNA dissolved in 50 μl TE buffer was added (for co-transfection experiments, 80 μg were used, i.e., 40 μg Plasmid I+40 μg Plasmid 2). The amount of gold particles and DNA corresponds to a microcarrier loading quantity (MLQ) of about 0.7 (mg/cartridge) and to a DNA loading ratio (DLR) of 2 (μg/mg) for single transfection experiments. DNA, spermidine and gold were then mixed for 5 sec in a variable speed vortexer. At low vortexing speed, 50 μl 1 M CaCl2 was added dropwise to the mixture for association of DNA with the gold particles followed by precipitation for 10 min at room temperature. The supernatant was removed and the pellet rinsed with 800 μl of 100% ethanol. Washing was repeated two times with centrifugation steps at 3000 g between each wash. […]\nA fully motorized Zeiss Axiovert 100M microscope equipped for inverted fluorescence was used for visualization of fluorescent neurons. […]"}}, "note": "Entries after “also recorded” stand apart in the source; their conditions may differ."}
{"compound": "C[C@@](O)(/C=C/[C@H]1CC=CC(=O)O1)[C@@H](C[C@@H](O)\\C=C/C=C\\C=C\\CO)OP(=O)(O)O", "note": "[fostriecin]", "values": [{"measurement": "Gli3 localization in presence of B-Box overexpression", "setting": "Gli3", "result": "reverse the observed effect"}, {"measurement": "Phosphorylated hFused-band on Western blot", "setting": "PP2A", "result": "clear enrichment of the phosphorylated hFused-band"}, {"measurement": "Ratio between phosphorylated and dephosphorylated hFused-form", "setting": "PP2A; cytosol of V5-tagged hFused-overexpressing cells, control without fostriecin 1.8×", "result": 18, "unit": "×"}]}
{"compound": "CC(=O)N[C@@H](CSC(=O)[C@]1([C@@H](O)C(C)C)NC(=O)[C@H](C)[C@@H]1O)C(=O)O", "note": "[lactacystin]", "values": [{"measurement": "High-molecular weight proteins in MID1-myc-containing precipitates", "setting": "proteasome", "result": "enrichment of high-molecular weight proteins"}]}
{"compound": "MID2: protein highly similar in amino acid sequence (83%) to MID1 (PTTAMSSERIACQFCEQDPPRDAVKTCITCEVSYCDRCLRATHPNKKPFTSHRLVEPV; listed as Homo sapiens)", "values": [{"measurement": "Interaction with α4", "setting": "α4", "result": "binds α4"}]}
{"compound": "inactive mutated form of the B-BOX1: Bbox1 with exchange of alanine 130 to threonine, abolishes association with α4 (ANTMTSAEKVLCQFCDQDPAQDTVKTCVTCEVSYCDECLKATHPNKKPFTGHRLIEPI) [reference compound]", "values": [{"measurement": "Tau-1 immunoreactivity (dephosphorylated tau)", "setting": "tau protein", "result": "does not show this effect; also recorded: do not exhibit different fluorescent levels"}]}
